Data set [1] is described as follows: AUC (0 to t) in Sprague-Dawley rat at 10 mg/kg, iv measured upto 24 hrs LC-MS/MS analysis. The conditions noted are these: in vivo. Type of data set: ADME, organism-based.
Data set [2] relates to Pseudomonas aeruginosa. The data set is described as follows: Antibacterial activity against Pseudomonas aeruginosa T-2022 assessed as inhibition of bacterial growth measured after 18 to 20 hrs by broth microdilution method. The note with it: time 18-20 hrs. Type of data set: functional. (In general: Broth dilution looks for growth in wells or tubes with falling amounts of substance.)

A short description of data set [3]: MRT in Sprague-Dawley rat at 10 mg/kg, po measured upto 24 hrs LC-MS/MS analysis. The data set is classed as ADME, organism-based. The note with it: in vivo.
A short description of data set [4]: Clearance in Sprague-Dawley rat at 10 mg/kg, iv measured upto 24 hrs LC-MS/MS analysis. The data set is classed as ADME, organism-based. The note with it: in vivo.
Data set [5] is described as follows: Cmax in Sprague-Dawley rat at 10 mg/kg, po measured upto 24 hrs LC-MS/MS analysis. Type of data set: ADME, organism-based. The conditions noted are these: in vivo.
Data set [6] in a line: Tmax in Sprague-Dawley rat at 10 mg/kg, po measured upto 24 hrs LC-MS/MS analysis. The data set is classed as ADME, organism-based. The conditions noted are these: in vivo.
The nature of data set [7]: Half life in Sprague-Dawley rat at 10 mg/kg, po measured upto 24 hrs LC-MS/MS analysis. The data set is classed as ADME, organism-based. The note with it: in vivo.
Data set [8] can be described thus: AUC (0 to t) in Sprague-Dawley rat at 10 mg/kg, po measured upto 24 hrs LC-MS/MS analysis. The conditions noted are these: in vivo. The data set is classed as ADME, organism-based.
Data set [9] in a line: Volume of distribution at steady state in Sprague-Dawley rat at 10 mg/kg, iv measured upto 24 hrs LC-MS/MS analysis. Type of data set: ADME, organism-based. The note with it: in vivo, read-out: Vdss.
A short description of data set [10]: MRT in Sprague-Dawley rat at 10 mg/kg, iv measured upto 24 hrs LC-MS/MS analysis. Type of data set: ADME, organism-based. The note with it: in vivo.
A short description of data set [11]: Half life in Sprague-Dawley rat at 10 mg/kg, iv measured upto 24 hrs LC-MS/MS analysis. The data set is classed as ADME, organism-based. The conditions noted are these: in vivo.
For data set [12], the system named is Pseudomonas aeruginosa. The data set is described as follows: Antibacterial activity against multi drug resistant Pseudomonas aeruginosa T-2022-D2-048 infected in cyclophosphamide-induced neutropenic thigh infection ICR mouse model assessed as reduction in log CFU at 12 mg/kg, iv measured after 24 hrs. The data set is classed as functional.
Data set [13] in a line: Oral bioavailability in Sprague-Dawley rat at 10 mg/kg measured upto 24 hrs LC-MS/MS analysis. The data set is classed as ADME, organism-based. The conditions noted are these: in vivo.
The test system of data set [14] is Klebsiella pneumoniae. The data set is described as follows: Antibacterial activity against Klebsiella pneumoniae 15-4 assessed as inhibition of bacterial growth measured after 18 to 20 hrs by broth microdilution method. Type of data set: functional. The conditions noted are these: time 18-20 hrs.
Data set [15] relates to Escherichia coli. The data set is described as follows: Antibacterial activity against Escherichia coli 14-4 assessed as inhibition of bacterial growth measured after 18 to 20 hrs by broth microdilution method. The conditions noted are these: time 18-20 hrs. The data set is classed as functional.
Data set [16] has as its system Jurkat. Kind of data set: Cytotoxicity against human Jurkat cells assessed as inhibition of cell growth at 100 uM incubated for 24 hrs by CCK8 method relative to control. The data set is classed as functional. (Tetrazolium assays rely on reduction of a dye to a coloured formazan, in cell work by metabolically active cells.)
Data set [17] relates to Acinetobacter baumannii. The data set is described as follows: Antibacterial activity against Acinetobacter baumannii 17-2 assessed as inhibition of bacterial growth measured after 18 to 20 hrs by broth microdilution method. Type of data set: functional. The conditions noted are these: time 18-20 hrs.
In data set [18] the test system is Klebsiella pneumoniae. The data set is described as follows: Antibacterial activity against Klebsiella pneumoniae 15-5 assessed as inhibition of bacterial growth measured after 18 to 20 hrs by broth microdilution method. Type of data set: functional. The note with it: time 18-20 hrs.
Data set [19] concerns Pseudomonas aeruginosa. Kind of data set: Antibacterial activity against Pseudomonas aeruginosa 19-5 assessed as inhibition of bacterial growth measured after 18 to 20 hrs by broth microdilution method. The conditions noted are these: time 18-20 hrs. Type of data set: functional.
For data set [20], the system named is Klebsiella pneumoniae. The data set is described as follows: Antibacterial activity against Klebsiella pneumoniae 15-1 assessed as inhibition of bacterial growth measured after 18 to 20 hrs by broth microdilution method. Type of data set: functional. The note with it: time 18-20 hrs.
Data set [21] is described as follows: Cytotoxicity against HEK293T cells assessed as inhibition of cell growth incubated for 24 hrs by CCK8 method. The data set is classed as toxicity, cell-based, HEK-293T. The conditions noted are these: human.
Data set [22] concerns Acinetobacter baumannii. The data set is described as follows: Antibacterial activity against Acinetobacter baumannii 17-8 assessed as inhibition of bacterial growth measured after 18 to 20 hrs by broth microdilution method. Type of data set: functional. The conditions noted are these: time 18-20 hrs.
The test system of data set [23] is Pseudomonas aeruginosa. Kind of data set: Antibacterial activity against Pseudomonas aeruginosa. The data set is classed as functional.
Data set [24] has as its system Pseudomonas aeruginosa. Kind of data set: Antibacterial activity against Pseudomonas aeruginosa 17-1 assessed as inhibition of bacterial growth measured after 18 to 20 hrs by broth microdilution method. The data set is classed as functional. The note with it: time 18-20 hrs.
The test system of data set [25] is Jurkat. Kind of data set: Cytotoxicity against human Jurkat cells assessed as inhibition of cell growth incubated for 24 hrs by CCK8 method. Type of data set: functional, cell-based.
Data set [26] can be described thus: Cytotoxicity against HEK293T cells assessed as inhibition of cell growth at 100 uM incubated for 24 hrs by CCK8 method relative to control. Type of data set: toxicity, cell-based, HEK-293T. The note with it: human.
In data set [27] the test system is Escherichia coli. The data set is described as follows: Antibacterial activity against Escherichia coli 14-2 assessed as inhibition of bacterial growth measured after 18 to 20 hrs by broth microdilution method. The data set is classed as functional. The conditions noted are these: time 18-20 hrs.
Data set [28] relates to HepG2. The data set is described as follows: Cytotoxicity against human HepG2 cells assessed as inhibition of cell growth incubated for 24 hrs by CCK8 method. Type of data set: functional, cell-based. The note with it: HepG2, 24 h.
For data set [29], the system named is Escherichia coli. The data set is described as follows: Antibacterial activity against Escherichia coli ATCC 35218 assessed as inhibition of bacterial growth measured after 18 to 20 hrs by broth microdilution method. The data set is classed as functional. The conditions noted are these: time 18-20 hrs.
In data set [30] the test system is HepG2. Kind of data set: Cytotoxicity against human HepG2 cells assessed as inhibition of cell growth at 100 uM incubated for 24 hrs by CCK8 method relative to control. The data set is classed as functional.
Data set [31] has as its system Pseudomonas aeruginosa. Kind of data set: Antibacterial efficacy against multi drug resistant Pseudomonas aeruginosa T-2022-D2-048 infected in cyclophosphamide-induced neutropenic thigh infection ICR mouse model assessed as decrease in bacterial burden administered as iv dose measured after 24 hrs. Type of data set: functional, organism-based. The note with it: dose 3-12 mg/kg.

For data set [32], the system named is Acinetobacter baumannii. Kind of data set: Antibacterial activity against Acinetobacter baumannii. Type of data set: functional.

≈ marks a conversion by molar mass, not a printed value. Calls of active or inactive are those of the source. The calls are words filed in the database; no cut-off is given here.

As a reminder, the AUC(0-t) is the area under the concentration-time curve up to a stated or last time point. A high value points to more exposure. A word on the MIC: it is the lowest concentration found to suppress growth. Broadly, the MRT is a mean duration of stay, worked out from the concentration-time curve. As usually defined, the clearance is the rate of elimination divided by the concentration. Read a high clearance as efficient removal. For orientation: Cmax means the peak of the concentration-time curve. For orientation: Tmax means the time from dosing to the highest level. A word on the half-life: it is how long it takes for the measured level to halve. Read a low half-life as fast loss. By bioavailability is commonly meant the share of a dose that reaches the circulation, judged against a reference dose that is usually intravenous. A higher bioavailability goes with much systemic uptake. As for `Cc1nc(-c2ccc(CSSC(C)(C)C)cc2)ncc1C(=O)N[C@@H](CCN)C(=O)N(C)[C@@H]1C(=O)N[C@@H](C)C(=O)N[C@H](C(=O)NCC#N)Cc2ccc(OCCN)c(c2)-c2cc1ccc2OCCN`, the AUC(0-t) at 24 h is 142 µg·h/mL in [1] (Sprague-Dawley) and 70.1 ng·h/mL in [8] (Sprague-Dawley). Besides, the minimal inhibitory concentration (MIC) in data set [2] is 4 µg/mL (≈ 4.13 µM). Further, the results for the mean residence time MRT in data set [3] and in data set [10] were 5.63 h and 6.27 h, respectively. Moreover, the clearance in data set [4] was 1.16 mL/min/kg. Besides, the highest level in [5] (Cmax) was 11.5 ng/mL. Moreover, in data set [6], the Tmax was found to be 3.33 h. For the same compound, the half-life in data set [7] was 170 min; in data set [11], 251 min. Besides, in [9], the Vd was found to be 0.435 L/kg. Also, the log CFU reduction in data set [12] is 3.5 log CFU/g. The compound also registered a bioavailability in data set [13] (Sprague-Dawley) of 0.05%.

As a reminder, the inhibition is the drop in the measured response relative to a control, in per cent. Usually IC50 stands for the midpoint of a concentration-inhibition curve. By MIC90 is commonly meant the lowest concentration that inhibits either 90% of growth or 90% of the strains tested, depending on the study. As for `Cc1nc(-c2ccc(C(C)(C)C)cc2)ncc1C(=O)N[C@@H](CCN)C(=O)N(C)[C@@H]1C(=O)N[C@@H](C)C(=O)N[C@H](C(=O)NCC#N)Cc2ccc(OCCN)c(c2)-c2cc1ccc2OCCN.Cl.Cl.Cl.Cl`, the MIC in data set [14] was 0.125 µg/mL; in [15] it was not above 0.03 µg/mL; in data set [2], 8 µg/mL; in data set [17], 2 µg/mL; in [18], 0.06 µg/mL; in data set [19] it was 16 µg/mL. In addition, the MIC in data set [20] was not above 0.03 µg/mL; in data set [22], 1 µg/mL; in data set [24] it was 32 µg/mL; in data set [27] it was not above 0.03 µg/mL; in data set [29], not above 0.03 µg/mL. Moreover, the AUCt turned out to be 61496 ng·h/mL in data set [1] (iv, 10 mg/kg, 24 h) and 9.01 ng·h/mL in data set [8] (po, 10 mg/kg, 24 h). The inhibition at 100 µM in [16] was 20.8%; in data set [30], -3.46%. Also, the results for the mean residence time (MRT) in data set [3] and in data set [10] were 2.69 h and 2.62 h, respectively. The clearance in data set [4] came out at 2.71 mL/min/kg. In addition, the IC50 at 24 h in data set [21] is more than 100 µM. This compound came in with a Cmax in [5] of 3.37 ng/mL. The Tmax in [6] stood at 1.17 h. The half-life in [7] is 93.6 min; in data set [11] it was 90.6 min. The MIC90 is 16 µg/mL in [23] and 4 µg/mL in data set [32]. The IC50 in data set [25] and in [28] was more than 100 µM throughout. For the same compound, the inhibition at 24 h, 100 µM in data set [26] stood at 37.9%. In data set [9], the Vd amounted to 0.423 L/kg. Further, the outcome in [31] was inactive. In addition, the F in [13] (po, 10 mg/kg, 24 h) is 0.1%.

Source of the values: ChEMBL document CHEMBL5518248, “Design, Synthesis, and Biological Evaluation of Novel Arylomycins against Multidrug-Resistant Gram-Negative Bacteria” (J Med Chem, 2024).
